Data taken from US11672802B2, “Induction of immune tolerance by using methotrexate” (Genzyme Corporation, priority 2011, dated 2023).
Entries after “also recorded” stand apart in the source; their conditions may differ.

Legend:
[1] = test system: anti-allograft antibodies; experiment: Serum alloantibody levels (binding to allogeneic fibroblasts); type: in vivo, mice; details: day 21, allogeneic heart transplant
Description: Serum alloantibody levels were determined by incubating serum from cardiac transplanted or normal mice at 1:50 dilutions with an SV40 transformed C57BL/6 fibroblast line (SVB6) followed by detection of fibrobast bound antibodies (alloantibodies) using FITC rabbit anti-mouse IgG (Dako, Carpinteria, Calif.) and by flow cytometric analysis. Geometric mean fluorescent intensities of serum stained fibroblasts were divided by isotype control stained fibroblasts to normalize alloantibody levels between experiments.

anti-alemtuzumab IgG = experiment: Anti-alemtuzumab IgG ELISA titers in huCD52 Tg mice
Description: Alemtuzumab-related studies employed human CD52 (huCD52) transgenic (Tg) mice between 6-12 weeks of age that were obtained from Charles River Laboratories/Genzyme Corp. Mice were housed and maintained in accordance with the Guide for Care and Use of Laboratory Animals and under American Association for Accreditation of Laboratory Animals Care I accreditation and all animal protocols used in these studies were approved by the Institutional Animals Care and Use Committee.
Monoclonal antibody alemtuzumab was administered intravenously as either a single injection of 0.5 mg/kg or in either a three or five day cycle of 0.5 mg/kg/day.
Methotrexate (Calbiochem catalog #454125) was administered at 0.5, 1.0, 2.0 or 5 mg/kg by intraperitoneal injection for 1-3 cycles, where each cycle equals either three, six or seven consecutive days of injection depending upon the experiment.
Mice were bled 4-6 days following alemtuzumab treatment and specific anti-alemtuzumab IgG was measured by ELISA. Briefly, 96-well plates (Corning Inc., Corning, N.Y., USA) were coated overnight with 3 μg/ml of alemtuzumab in PBS (pH 7.2). Following blocking with 0.1% BSA in PBS, serial dilutions of serum were added in duplicate to alemtuzumab-coated plates and incubated at 37° C. for 1 h. The plates were washed, and horseradish peroxidase-conjugated goat anti-mouse IgG secondary antibody (Southern Biotechnology Associates, Birmingham, Ala., USA) was added and allowed to incubate for 1 h at 37° C. Following a final wash, TMB substrate (BioFx, Owings Mills, Md., USA) was added and allowed to develop for 15 min at room temperature. The reaction was stopped by the addition of 1 N HCl and absorbance values were read at 450/650 nm on an ELISA plate reader (Molecular Devices, Sunnyvale, Calif., USA). End-point titers were defined as the antilog of the logarithmically transformed sample dilution interpolated at an absorbance value of 0.2 using Excel software (Microsoft, Redmond, Wash., USA).

[2] = test system: CD4+ and CD8+ T cells, T regulatory cells, B cells; experiment: Flow cytometry of lymphocyte populations in mATG-treated mice; type: in vivo, C57BL/6 mice
Description: For splenocyte and lymph node cell preparations single-cell suspensions were generated from harvested mouse spleens or inguinal and mesenteric lymph nodes by homogenization between frosted glass slides into PBS containing 2% FCS. For splenocyte preparations, red blood cells were lysed by 1-2 minute incubation with a red blood cell lysis solution (BD Biosciences, San Diego, Calif.). Blood was isolated by retro-orbital bleeding and cell preparations were performed by lysing red blood cells with red blood cell lysing solution (BD Biosciences) for 20-30 minutes. For all tissue preparations, live cells were enumerated using the ViCell automated counter (Beckman Coulter, Fullerton, Calif.). Following isolation, all cell preparations were washed with PBS/2% FCS prior to use in the assays described below.
For evaluation of cell populations within different tissues, single cell suspensions of the tissues were incubated with fluorochrome-conjugated antibodies that included anti-mouse CD4, CD8, CD25, CD44, CD62L (all antibodies from BD Biosciences or eBioscience, San Diego, Calif.). Intracellular Foxp3 expression analysis was performed according to the anti-Foxp3 manufacturer's protocol (eBiosciences, San Diego, Calif.). Following incubation with the antibodies, cells were washed and analyzed by flow cytometry (FACSCanto, BD Biosciences and FCS Express software, De Novo Software, Los Angeles, Calif.).

[3] = test system: anti-rhGAA antibody titers; experiment: Adoptive transfer of splenic B cells from tolerized mice; type: in vivo, C57BL/6 mice; details: donors treated with Myozyme and a single cycle of methotrexate
Description: C57BL/6 mice were obtained from Jackson Laboratories and were housed under specific pathogen free conditions. Control mice were given a single intravenous injection of rhGAA at 20 mg/kg. Tolerized mice were given a single intravenous injection of rhGAA at 20 mg/kg, in addition to three daily consecutive methotrexate intraperitoneal injections of 0.5 mg. Spleens were harvested on day six after the initial rhGAA injection, from both donor groups, and processed into pooled single cell suspensions. Cells were washed and filtered through a […]. Cells were then enriched for B cells using a StemCell Technologies RoboSep cell separation system, and resuspended to allow for a 200 μl intravenous injection. Tolerized and non-tolerized recipient groups received either a high cell 10×10^6 or a low cell 5×10^6 concentration via intravenous injections. Control groups were given rhGAA only, or rhGAA and methotrexate (single cycle of three consecutive daily MTX injections). All groups received weekly intravenous rhGAA 20 mg/kg injections, and were retro-orbitally bled biweekly for 16 weeks, into BD Vacutainer serum separator tubes. Serum was removed and stored below −20° C. until used for ELISA. Anti-rhGAA antibody titers were determined using ELISA, read on a SpectraMax M2, and calculated using Softmax to extrapolate titer value. […]

[4] = Circulating mATG levels (mATG-specific IgG ELISA); type: in vivo, mice
Description: Mouse serum was determined by ELISA. […] Following blocking with 0.5% BSA (high purity), standard controls and serum samples were diluted as necessary and added in duplicate to the wells of the coated plates and incubated at 36-38° C. for 1 hour with gentle shaking. […] Final concentrations were interpolated off the standard curve. It was predetermined that the measurement of mATG-specific IgG by this method were only modestly affected by titers of anti-mATG IgG that were greater than 218,000.

[5] = test system: allogeneic heart transplant; experiment: Murine allogeneic heart transplant model, graft survival; type: in vivo, mice (C57BL/6 donor, Balb/c recipient); details: treatment alone
Description: Polyclonal antibody mATG was administered as an intraperitoneal injection of 5 mg/kg every four weeks or as two 20 mg/kg doses given four days apart when in the transplant setting with the first dose given on the day of transplant (day 0).
C57BL/6 and BALB/c mice were obtained from Charles River (Kingston, N.Y. or Raleigh, N.C.) and used in these experiments between 8 and 13 weeks of age. The donor allogenic C57BL/6 mice were first anesthetized with an intraperitoneal injection of Ketamine (Fort Dodge Animal Health/Pfizer, Fort Dodge, Iowa) and Xylazine (Lloyd, Shenandoah, Iowa) and a median sternotomy was performed. […] The ascending aorta and pulmonary artery were then transected, the graft removed from the donor and the heart was stored in ice-cold saline until engraftment. A recipient mouse (Balb/c) was similarly anesthetized and prepped as described above for donor mice, except that the abdominal cavity was opened. […] After hemostasis was confirmed, the abdominal muscle was closed with a running 5-O Vicryl suture (Ethicon, Johnson & Johnson, Somerville, N.J.), and the skin closed with running 5-0 Ethilon suture (Ethicon). Standard post-op pain assessment and management was performed. Grafts were assessed by palpation 5-7 times per week for the first 30 day, and then 3-4 times per week until the end of the study.

[6] = methotrexate 1 mg/kg/day, three alemtuzumab treatment cycles

CN(Cc1cnc2nc(N)nc(N)c2n1)c1ccc(C(=O)N[C@@H](CCC(=O)O)C(=O)O)cc1 [methotrexate, Methotrexate]
anti-allograft antibody (alloantibody) levels [1]: significantly reduce; also recorded: significantly lower | reduction of anti-alemtuzumab responses (anti-alemtuzumab IgG; methotrexate 1 mg/kg, single three-dose cycle, five monthly alemtuzumab 0.5 mg/kg): 88% | mice in which titers were controlled (anti-alemtuzumab IgG; [6]): 7 of the 8 | reduction of anti-alemtuzumab titers (anti-alemtuzumab IgG; [6]): 79% | reduction of ADA, area under the effect curves (anti-alemtuzumab IgG; methotrexate 2 mg/kg/day, three alemtuzumab treatment cycles): 98% | reduction of anti-alemtuzumab IgG responses (anti-alemtuzumab IgG; methotrexate 5 mg/kg, single three-dose cycle, five monthly alemtuzumab 0.5 mg/kg): 99% | anti-alemtuzumab antibody titers (anti-alemtuzumab IgG; three daily doses 5 mg/kg/day methotrexate, 24 hours after fifth monthly alemtuzumab dose): reduced | levels of circulating CD4+ and CD8+ T cells ([2]; after fifth monthly mATG treatment, mATG alone or with one cycle of methotrexate): significantly depleted | depletion of CD4+, CD8+, T regulatory T cells and total CD19+ B cells ([2]; methotrexate alone, animals receiving an allogeneic transplant): did not deplete | depletion of CD4+, CD8+, T regulatory T cells and total CD19+ B cells ([2]; normal animals, blood and spleen): does not deplete | percentage of T regulatory cells in spleen and blood ([2]; single cycle of methotrexate, after fifth monthly mATG treatment): enhanced the ability of mATG to increase the percentage of T regulatory cells | absolute number of activated follicular and activated transitional 3 B cells ([2]; spleen, single cycle of methotrexate, around fifth mATG dose): no statistically significant decreases | transfer of immune tolerance to Myozyme in naive hosts by total splenic B cells [3]: could transfer immune tolerance | circulating mATG levels ([4]; heart transplant model, seven days after first mATG administration, mATG alone or with methotrexate): significantly higher | levels of circulating mATG ([4]; months 3 and 5 of monthly mATG, alone or with single cycle methotrexate 5 mg/kg x3): measurable levels | average extended graft survival [5]: 20 days
